Data reported in US4818772A, “Derivatives of 4-aminoethoxy-5-isopropyl-2-methylbenzenes: methods of synthesis and utilization as medicines” (Societe Cortial S.A., priority 1981, dated 1989).
Counter-ions that a name gives are not always drawn. Like-named read-outs stand apart in the source and are kept apart here.

Legend:
in vivo = settings: mouse; for mortality: oral, Swiss mice, solvent varies by compound, read-out: Percentage mortality
Procedure: The toxicity of the compounds described in the present invention was determined by performing tests with Swiss mice. The animals, free of specific pathogenic organisms, are kept in an air-conditioned room for 24 to 48 hours before the beginning of the experiment. The animals are divided into groups consisting of 5 males and 5 females. The substances are administered with the appropriate carrier in a volume corresponding to 0.1 ml per 10 g of animal weight.
The following tables display the LD 50 determined for each compound, for oral and intraperitoneal administration, by utilizing the method described by J. C. Cazin (Bull. Soc. Pharm. Lille, 1972, 4, 187). In case the LD 50 could not be measured, the mortality percentages produced by various doses are reported.

[1] = tested on: aortic strips isolated from rabbits (contractions induced by noradrenaline); assay: In vitro alpha-blocking activity: antagonism of noradrenaline-induced contractions of aortic strips; type: cell-based; settings: Oryctolagus cuniculus, read-out: CI 50 (50% inhibition of standard contraction induced by noradrenaline), noradrenaline 2×10^-6 M/l
Procedure: In vitro alpha-blocking activity is determined by the antagonism of contractions of aortic strips isolated from rabbits. The contractions are induced by noradrenaline at a concentration of 2×10^-6 M/l. The technique utilized is derived from that of Furchgott and Bhadrakom (J. Pharmacol., 1953, 108, 129-43). The agonist is introduced in the bath 30 seconds or 14 minutes after the addition of the antagonist.

[2] = tested on: hypertension induced by phenylephrine; assay: In vivo alpha-blocking activity: antagonism of hypertension induced by phenylephrine, intravenous, amyelic rats; settings: for inhibition in vivo at 1.6 mg/kg / inhibition in vivo at 3.2 mg/kg / inhibition in vivo at 0.2 mg/kg: Rattus norvegicus, iv, read-out: % of maximum activity (percentage inhibition); for time for the residual activity to become 50% of the maximum activity: i.v.
Procedure: (§1) The in vivo alpha-blocking activity is estimated by the measurement of the antagonism of hypertension induced by phenylephrine. For intravenous administration, amyelic rats with both vagus nerves removed according to the technique of J. S. Gillespie and T. C. Muir (Br. J. Pharmac. Chemother., 1967, 30, 78-87) are used. The alpha-blocking agents are administered at doses of 0.2, 1.6 and 3.2 mg/kg.

unwashed human platelets = assay: Prevention of the aggregation of human platelets (plasma rich in platelets); type: cell-based; settings: Platelet
Procedure: The studies were carried out with platelets in their natural surroundings (plasma rich in platelets). The inhibiting agent was tested in the presence of four types of aggregating agents (ADP, adrenalin, collagen, arachidonic acid) at various concentrations.
For each case, a dose-response curve was established.

[3] = tested on: hypertension induced by phenylephrine; assay: In vivo alpha-blocking activity: antagonism of hypertension induced by phenylephrine, oral, awake male rats; settings: 5 mg/kg
Procedure: as §1
(§2) For oral administration, male rats kept awake and fitted with catheters implanted in the carotid artery and in the jugular vein are used. Compound COR 28 11 results in a maximum activity of 56.7±10.25% at a dose of 5 mg/kg. After 60 minutes, the activity is still 30%. The antihypertensive activity is determined on rats of Okamoto stock that are spontaneously hypertensive and anesthesized with pentobarbital. A dose of 0.1 mg/kg of compound COR 28 11 administered intravenously causes the average blood pressure to go from 135 to 106 mm of mercury.

[4] = tested on: rats of Okamoto stock that are spontaneously hypertensive; assay: Antihypertensive activity in spontaneously hypertensive rats; type: in vivo; settings: i.v., 0.1 mg/kg; from 135 mm of mercury; anesthetized with pentobarbital
Procedure: as §2

[5] = agonist 30 seconds after antagonist (not flagged with *)
[6] = read-out: I 50 (50% inhibition of platelet aggregation), ADP 1.25μM/l
[7] = read-out: I 50 (50% inhibition of platelet aggregation), ADP 2.5μM/l
[8] = read-out: I 50 (50% inhibition of platelet aggregation), adrenalin 1μM/l
[9] = read-out: I 50 (50% inhibition of platelet aggregation), adrenalin 5μM/l
[10] = read-out: I 50 (50% inhibition of platelet aggregation), arachidonic acid 5·10^-4 M/l
[11] = read-out: I 50 (50% inhibition of platelet aggregation), arachidonic acid 10^-3 M/l
[12] = read-out: I 50 (50% inhibition of platelet aggregation), collagen 50μg/ml

| Compound | LD50 (in vivo; ip) [mg/kg] | LD50 (in vivo; po) [mg/kg] | IC50 [1, 5] [µM] | inhibition in vivo at 1.6 mg/kg ([2]; 1.6 mg/kg) [%] | inhibition in vivo at 3.2 mg/kg ([2]; 3.2 mg/kg) [%] | time for the residual activity to become 50% of the maximum activity ([2]; 1.6 mg/kg, given in m and s) [min] | also measured |
| --- | --- | --- | --- | --- | --- | --- | --- |
| Cc1cc(OCCN(C)CC2COc3ccccc3O2)c(C(C)C)cc1O (centres unmarked) [COR 28 12, hydrochloride of N-[(4-hydroxy-2-isopropyl-5-methyl)phenoxyethyl]-N-methyl-[2-(1,4-benzodioxane)]methylamine] | 350 | 1430 | 90 | 59.1 ± 7.5 | 65.7 ± 4.5 | – | – |
| COc1cc(C(C)C)c(OCCN(C)CCOc2c(OC)cccc2OC)cc1C [drawing 28] | – | – | – | – | – | – | IC50 (unwashed human platelets; [6]): 70 µM; IC50 (unwashed human platelets; [7]): 74 µM; IC50 (unwashed human platelets; [8]): 16 µM; IC50 (unwashed human platelets; [9]): 40 µM; IC50 (unwashed human platelets; [10]): > 100 µM; IC50 (unwashed human platelets; [11]): > 100 µM; IC50 (unwashed human platelets; [12]): 100 µM |
| COc1cccc(OC)c1OCCNCCOc1cc(C)c(O)cc1C(C)C [COR 28 25, hydrochloride of 4-[N-(2,6-dimethoxyphenoxyethyl)aminoethoxy]-5-isopropyl-2-methylphenol] | – | – | – | 94.8 ± 2.22 | – | 120 | inhibition in vivo at 0.2 mg/kg ([2]; 0.2 mg/kg): 70.2 ± 4.89%; time for the residual activity to become 50% of the maximum activity ([2]; 0.2 mg/kg): 20 min |
| Cc1cc(OCCNCC2COc3ccccc3O2)c(C(C)C)cc1O (centres unmarked) [drawing 29] | – | – | – | – | – | – | IC50 (unwashed human platelets; [6]): 60 µM; IC50 (unwashed human platelets; [7]): 58 µM; IC50 (unwashed human platelets; [8]): 24 µM; IC50 (unwashed human platelets; [9]): 50 µM; IC50 (unwashed human platelets; [10]): 15 µM; IC50 (unwashed human platelets; [11]): 54 µM; IC50 (unwashed human platelets; [12]): 52 µM |
| COc1cc(C(C)C)c(OCCNCCOc2ccccc2)cc1C [COR 28 10, hydrochloride of N-phenoxyethyl-2-[(2-iso-propyl-4-methoxy-5-methyl)phenoxy]ethylamine] | 81 | – | 350 | 66.3 ± 1.83 | 77 | – | mortality (in vivo; 1000 mg/kg): 20% |
| COc1cccc(OC)c1OCCN(C)CCOc1cc(C)c(O)cc1C(C)C [COR 28 22, hydrochloride of 4-[N-(2,6-dimethoxyphenoxyethyl)-N-methylaminoethoxy]-5-isopropyl-2-methylphenol] | 66.2 | 316 | 0.178 | 112 ± 7.3 | – | 120 | inhibition in vivo at 0.2 mg/kg ([2]; 0.2 mg/kg): 91.1 ± 3.46%; time for the residual activity to become 50% of the maximum activity ([2]; 0.2 mg/kg): 35 min |
| COc1cc(C(C)C)c(OCCN(C)CCOc2ccccc2)cc1C [COR 28 09, hydrochloride of N-methyl-N-phenoxyethyl-2-[(2-isopropyl-4-methoxy-5-methyl)phenoxy]ethylamine] | 200 | – | 260 | 51.4 ± 5.1 | 74.7 ± 5.2 | – | mortality (in vivo; 1000 mg/kg): 0% |
| Cc1cc(OCCNCC2COc3ccccc3O2)c(C(C)C)cc1O (centres unmarked) [COR 28 14, hydrochloride of N-[(4-hydroxy-2-isopropyl-5-methyl)phenoxyethyl]-[2-(1,4-benzodioxane)]methylamine] | 174 | 952 | 6 | 92 ± 2.45 | 100 | – | time for the residual activity to become 50% of the maximum activity ([2]; 3.2 mg/kg, given in m and s): > 60 min |
| Cc1cc(OCCN(C)CCCc2ccccc2)c(C(C)C)cc1O [COR 28 23, hydrochloride of 5-isopropyl-2-methyl-4-[N-methyl-N-(3-phenylpropyl)aminoethoxy]phenol] | 154 | 615 | 2.7 | 81.1 ± 2.35 | – | 20 | – |
| COc1cc(C(C)C)c(OCCN(C)CCOc2c(OC)cccc2OC)cc1C [COR 28 11, hydrochloride of N-(2,6-dimethoxyphenoxyethyl)-N-methyl-2-[(2-isopropyl-4-methoxy-5-methyl)phenoxy]ethylamine] | 93 | 546 | – | 61.8 ± 4.9 | 74.6 ± 4.4 | > 60 | IC50 ([1]; 14 min, contact time 14 min): 21.6 µM; time for the residual activity to become 50% of the maximum activity ([2]; 3.2 mg/kg, given in m and s): 60 min; maximum activity [3]: 56.7±10.25%; activity after 60 minutes ([3]; after 60 minutes): 30%; average blood pressure after administration [4]: 106 mm of mercury |
| Cc1cc(OCCNCCCc2ccccc2)c(C(C)C)cc1O [COR 28 21, hydrochloride of 5-isopropyl-2-methyl-4-[N-(3-phenylpropyl)aminoethoxy]phenol] | 84.6 | 359 | 11.7 | 73.4 ± 6.99 | – | 50 | – |
| CC(=O)Oc1cc(C(C)C)c(OCCN(C)C)cc1C [Moxisylyte, reference compound] | 73 | 225 | 17 | 83.1 ± 5.71 | 82.6 ± 4.54 | – | – |
| CC(=O)Oc1cc(C(C)C)c(OCCN(C)CC2COc3ccccc3O2)cc1C (centres unmarked) [COR 28 13, hydrochloride of N-[(4-acetoxy-2-isopropyl-5-methyl)phenoxyethyl]-N-methyl-[2-(1,4-benzodioxane)]methylamine] | 600 | – | 252 | 46.1 ± 6.01 | 61.1 ± 6.4 | – | mortality (in vivo; 1000 mg/kg): 0%; mortality (in vivo; 2000 mg/kg): 20% |
